The values that follow come from patent US4510323A, “Cis-bicyclo[3.3.0]octane derivatives, medicaments containing them and processes for their preparation and use” (Gruenenthal GmbH, priority 1981, dated 1985).

For assay [1], the target named is T1, adenylate cyclase in horse thrombocytes (Equus caballus, UniProt F7CK38).
T1 construct: Gs-coupled adenylate cyclase stimulation, cAMP formation from ATP as read-out
In words: Stimulation of adenylate cyclase (c-AMP formation from ATP) in horse thrombocytes. Format: biochemical. The text has this:
The enzyme adenylate cyclase catalyzes the formation of adenosine 3',5'-cyclic monophosphate (c-AMP) from adenosine triphosphate (ATP).
*Dose causing a threefold stimulation of the cAMP formation from ATP.

The subject of assay [2] is human thrombocytes. Nature of the assay: Inhibition of arachidonic acid induced aggregation of human thrombocytes. The assay is classed as cell-based. The settings on record: for IC50: arachidonic acid induced aggregation of human thrombocytes; for relative activity: in comparison to prostacyclin = 1.0. An excerpt:
The aggregation of human thrombocytes induced by arachidonic acid may be prevented e.g. by prostacyclin.

Assay [3] relates to narcotized rats. In words: ADP induced fall in platelet count in-vivo in narcotized rats, intravenous administration. The settings on record: urethane narcosis, 5,6-dihydroprostacyclin = 1.0. Also noted: species or system rat.
Assay [4] concerns conscious, spontaneous hypertensive rats. In words: Blood pressure lowering activity in conscious, spontaneous hypertensive rats. The assay is classed as in vivo, rat. The settings on record: intravenous; for relative activity: blood pressure lowering, conscious SHR, 5,6-dihydroprostacyclin = 1.0; for ED (20 mm Hg): Rattus norvegicus, read-out: ED20 (dose causing a drop of the diastolic blood pressure by 20 mm Hg). The text has this:
Blood pressure lowering activity in conscious,
spontaneous hypertensive rats (measurement via in-
dwelling catheter, intravenous administration of the […]

Assay [5] has as its system narcotized rats. In words: Blood pressure lowering activity in narcotized rats (pentobarbital narcosis). Format: in vivo, rat. The settings on record: intravenous; for ED (20 mm Hg): Rattus norvegicus, pentobarbital narcosis, read-out: ED20 (dose causing a drop of the diastolic blood pressure by 20 mm Hg); for relative activity: blood pressure lowering, prostacyclin = 1.0. The text has this:
Blood pressure lowering activity in nar-
cotized rats (pentobarbital narcosis; intravenous

In assay [6] the test system is narcotized rats. Nature of the assay: Persistence of blood pressure lowering activity after supramaximal hypotensive dose in narcotized rats. Format: in vivo, rat. The settings on record: for half time of b.p.l.a. (blood pressure lowering activity) / rate of decay of blood pressure lowering activity: 1 mg/kg intravenous, narcotized rats (pentobarbital). On the procedure:
On intravenous administration of a supra-
maximal hypotensive dose (1 mg/kg) of the test com-
pounds in narcotized rats (pentobarbital narcosis) the
following persistence characteristics of the blood
pressure lowering activity ("b.p.l.a.") were observed: […]

Assay [7] deals with narcotized rats. In words: Thrombocyte aggregation inhibition after oral administration (ADP induced fall in thrombocyte count in-vivo) in narcotized rats. The settings on record: for % inhibition of platelet aggregation: narcotized rats (urethane). Also on record: species or system rat. The protocol:
In this experiment the product obtained in Example 2 was administered orally in a dose of 4.64 mg/kg of narcotized rats (urethane narcosis). The thrombocyte aggregation inhibiting activity was determined at 30, 60 and 150 minutes after administration of the compound (Method: ADP induced fall in thrombocyte count in-vivo, determined by a "Technicon Autocounter").

Assay [8] has as its system narcotized rats. The settings on record: stated as known; cited from earlier work.
Assay [9] has as its system platelet aggregation induced by arachidonic acid. The settings on record: in vitro, Whittle et al., page 611; cited from earlier work.
Setting [10] is: conscious spontaneous hypertensive rats, indwelling catheter.

By IC50 is commonly meant the concentration that gives 50% inhibition. A low value points to greater potency in that assay.

T1 sequence (F7CK38 1-384): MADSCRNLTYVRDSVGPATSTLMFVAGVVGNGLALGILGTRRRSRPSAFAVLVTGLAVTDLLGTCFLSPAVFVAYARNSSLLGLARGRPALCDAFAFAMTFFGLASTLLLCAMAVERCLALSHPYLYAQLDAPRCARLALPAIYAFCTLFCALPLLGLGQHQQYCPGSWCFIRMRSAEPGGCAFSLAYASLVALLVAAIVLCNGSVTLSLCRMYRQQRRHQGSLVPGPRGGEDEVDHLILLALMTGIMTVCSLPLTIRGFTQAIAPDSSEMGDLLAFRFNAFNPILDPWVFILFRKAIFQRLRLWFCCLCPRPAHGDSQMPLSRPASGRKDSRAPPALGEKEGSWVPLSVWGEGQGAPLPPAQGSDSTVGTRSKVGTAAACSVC

`CCCCCC(O)C=CC1C(O)CC2OC(CCCCC(=O)O)CC21` (centres unmarked) [5,6-Dihydroprostacyclin, 5,6-dihydroprostacyclin, reference compound]: the “EC200% (dose causing a threefold stimulation of the cAMP formation from ATP)” value in assay [1] was 15.0 µmol/L. In addition, the relative activity in assay [1] (relative to 5,6-dihydroprostacyclin = 1.0, adenylate cyclase stimulation) worked out at 1.0; in assay [2], 0.043; in assay [3] it was 1.0; in assay [4] it was 1.0. For the same compound, in assay [2], the IC50 was 0.18 µM. Besides, the “ED20 (dose causing a drop of the diastolic blood pressure by 20 mm Hg)” value in assay [4] (setting [10]) worked out at 0.005 mg/kg.
On to `CCCCC[C@H](O)/C=C/[C@@H]1[C@H]2CC(=Cc3cccc(C(=O)O)c3)C[C@H]2C[C@H]1O` [Compound A, 3-(m-carboxybenzylidene)-6-beta-(3'S-hydroxy-1'E-octenyl)-7-alpha-hydroxy- cis-bicyclo[3.3.0]octane, reference compound], for which the “EC200% (dose causing a threefold stimulation of the cAMP formation from ATP)” value in assay [1] is 0.4 µmol/L. Moreover, in [2], the IC50 is 0.12 µM. The results for the relative activity in assay [2], in [3] and in assay [4] were 0.065, 0.1 and 0.003, respectively. Moreover, the ED (20 mm Hg) in assay [4] (setting [10]) is 1.9 mg/kg.
In the case of `O=C(O)c1cccc(C=C2C[C@H]3C[C@@H](O)[C@H](/C=C/[C@@H](O)C4CCCCC4)[C@H]3C2)c1` [Example 1e, 3EZ-(m-carboxybenzylidene)-6β-(3'S-hydroxy-3'-cyclohexyl-1'E-propenyl)-7α-hydroxy-cis-bicyclo[3.3.0]octane], the “EC200% (dose causing a threefold stimulation of the cAMP formation from ATP)” value in assay [1] was found to be 0.15 µmol/L. For the same compound, in assay [2], the IC50 stood at 0.08 µM. Further, the relative activity in assay [2] turned out to be 0.098; in assay [3], 1.0; in [4], 0.068. The ED (20 mm Hg) in assay [4] (setting [10]) worked out at 0.073 mg/kg.
Regarding `O=C(O)c1cccc(/C=C2\C[C@H]3C[C@@H](O)[C@H](/C=C/[C@@H](O)C4CCCCC4)[C@H]3C2)c1` [Example 2, 3E-(m-Carboxybenzylidene)-6β-(3'S-hydroxy-3'-cyclohexyl-1'E-propenyl)-7α-hydroxy-cis-bicyclo[3.3.0]octane], the “EC200% (dose causing a threefold stimulation of the cAMP formation from ATP)” value in [1] was determined as 0.13 µmol/L. In assay [2], the IC50 was determined as 0.07 µM. Also, the relative activity in [2] stood at 0.11; in [3] it was 1.0; in [4], 0.053; in assay [5] it was 0.03. Further, the ED (20 mm Hg) in assay [4] (setting [10]) was 0.094 mg/kg; in assay [5], 5.39 mg/kg. Also, the “half time of b.p.l.a. (blood pressure lowering activity)” value in [6] is on record as 25.96 min. For the same compound, the “rate of decay of blood pressure lowering activity” value in assay [6] is 2.6 % per min. Also, the “duration of action relative to prostacyclin” value in [6] (blood pressure lowering activity, from Table 5) was “about 5 times”. The results for the “% inhibition of platelet aggregation” value in assay [7] (30 min after oral 4.64 mg/kg), in assay [7] (60 min after oral 4.64 mg/kg) and in assay [7] (150 min after oral 4.64 mg/kg) were 38%, 26% and 22%, respectively. The “duration of strong thrombocyte aggregation inhibition” value in assay [7] (oral administration) was “at least 2.5 hours”.
As for `O=C(O)c1cccc(C=C2CC3CC(O)C(C=CC(O)C45CC6CC(CC(C6)C4)C5)C3C2)c1` (stereo not drawn) [Example 3e, 3EZ-(m-Carboxybenzylidene)-6β-[3'S-hydroxy-3'-(1"-adamantyl)-1'E-propenyl]-7α-hydroxy-cis-bicyclo[3.3.0]octane], the “EC200% (dose causing a threefold stimulation of the cAMP formation from ATP)” value in assay [1] came out at 0.18 µmol/L. For the same compound, the ED (20 mm Hg) in assay [4] (setting [10]) is greater than 1 mg/kg. In addition, the relative activity in assay [4] was less than 0.005.
`CCCCC[C@H](O)/C=C/[C@@H]1[C@H]2C/C(=C/CCCC(=O)O)O[C@H]2C[C@H]1O` [Prostacyclin, reference compound] had an IC50 in assay [2] of 0.0078 µM. In assay [5], the ED (20 mm Hg) is 0.16 mg/kg and the relative activity was found to be 1.0. Further, in assay [6], the “half time of b.p.l.a. (blood pressure lowering activity)” value was determined as 5.89 min and the “rate of decay of blood pressure lowering activity” value worked out at 11 % per min. Besides, the “effectiveness on oral administration” value in assay [8] was “ineffective”.
Turning to `CCCCC[C@H](O)/C=C/[C@@H]1[C@H]2C/C(=C/CCCC(=O)O)C[C@H]2C[C@H]1O` [carbacyclin], the “activity relative to prostacyclin as inhibitor of platelet aggregation” value in [9] was 0.02 times.
